Where two headings read alike, the source gives them in different places.
Columns and labels:
[1] = Stability of the compounds under high temperature, high humidity and light (influence factors, HPLC); assay type: physicochemical
Experimental: Study on the Stability of the Compounds:
The stability of the compound is investigated under the conditions of high temperature, high humidity and light. The testing conditions for high performance liquid chromatography (HPLC) are as follows:
Instrument: high performance liquid chromatography;
Column: Inertsil C8-3, 150 mm×4.6 mm, 5 μm;
Mobile phase A: acetonitrile; mobile phase B: 5 mM ammonium dihydrogen phosphate;
Detection wavelength: 220 nm;
Column temperature: 35° C.;
Sample chamber temperature: 25° C.;
Column: Agilent Poroshell 120 EC-C18, 100 mm×4.6 mm, 2.7 μm;
Column temperature: 30° C.;
Other conditions are the same as that in Method 1.
Samples relating to Compound I-2 were tested using Method 2 and other samples were tested using Method 1. The test results of the influence factors are shown in Table 14, and the test results of the light-avoidance stability test are shown in Table 15.

[2] = 1 μM
Experimental: Plasma samples (double sample) containing 1 μM of the compounds of the present invention, clopidogrel hydrogen sulfate (LBGL), 2-oxo product (2-Oxo) were prepared from human blank plasma, and incubated at 37° C. 50 μL of the above incubated plasma samples were taken at different time points, and 100 μL of precipitant (acetonitrile:methanol=7:3) and 50 μL of internal standard were added. The mixture was vortexed for 1 min and centrifuged for 10 min. 100 μL of the supernatant was taken into an inner inserted tube, centrifuged for 5 min, and injected for LC-MS/MS analysis.
Preparation of blank control sample (PPT-0): 100 μL of frozen human blank plasma was taken, to which 195 μL of acetonitrile and 100 μL of internal standard were added, followed by 5 μL of the compound of the present invention, clopidogrel or 2-oxo product (20 μM). The mixture was vortexed for 1 min and centrifuged for 10 min. 100 μL of the supernatant was taken into an inner inserted tube, centrifuged for 5 min, and injected for LC-MS/MS analysis.

beagle dogs = assay: Safety evaluation in multiple dosing (14 days); assay type: in vivo; conditions: for ECG examinations, hematological tests and serum biochemical tests: day 7 and 14
Experimental: Safety Evaluation of Compounds I-1 and I-2 in Multiple Dosing:
The test consisted of a physiological control group, a solvent control group, and two administration groups, with 4 animals in each group, half of which were male and the other half of which were female. Two dose groups, 100 mg/kg group and 300 mg/kg group, were set for the test compounds, to which the test compounds at doses of 100 mg/kg and 300 mg/kg were intragastrically administered respectively over 14 days. The solvent control group was administered with an equal volume of the blank solvent. Animals were daily observed for various conditions during the test. ECG examinations were performed before administration, and 7 and 14 days after administration. Hematological and blood biochemical tests were performed before administration and 7 and […] after administration.

[3] = tested on: platelet aggregation induced by ADP; assay: Test of inhibitory effect of compounds on platelet aggregation in rats (ex vivo, ADP-induced, after intragastric administration); design: species or system SD rats; conditions: for Inhibition rate (%): platelet aggregation, control = 100%; for Inhibition rate (%) / Aggregation rate (%): rats; for Aggregation rate (%): 2 h after administration, ADP 20 uM
Experimental: Test of Inhibitory Effect of Compounds on Platelet Aggregation in Rats Healthy male SD rats were selected and randomly divided into solvent control group, positive drug control group and test compound group. Intragastric administration was carried out, with the administration volume being 10 ml/kg˜bw. […] The platelet count was adjusted to 5×10^8 cells/ml with PPP.

[4] = 5 days, High temperature 60° C.
[5] = 10 days, High temperature 60° C.
[6] = 30 days, High temperature 60° C.
[7] = intragastric 100 mg/kg over 14 days
[8] = intragastric 300 mg/kg over 14 days

C/C=C/C(=O)Oc1cc2c(s1)CCN([C@H](C(=O)OC)c1ccccc1Cl)C2 [Compound I-1, Methyl (S,E)-2-(2-chlorophenyl)-2-(2-(2-butenoyloxy)-6,7-dihydrothieno[3,2-c]pyridin-5(4H)-yl)-acetate]
Chromatographic purity % ([1]; 0 day, 0point): 99.612% | Individual maximum impurity % ([1]; 0 day, 0point): 0.236% | Chromatographic purity % ([1]; 5 days, High humidity RH92.5%): 99.583% | Individual maximum impurity % ([1]; 5 days, High humidity RH92.5%): 0.235% | Chromatographic purity % [1, 4]: 99.595% | Individual maximum impurity % [1, 4]: 0.234% | Chromatographic purity % ([1]; 5 days, Light 4500 ± 500 LX): 99.539% | Individual maximum impurity % ([1]; 5 days, Light 4500 ± 500 LX): 0.287% | Chromatographic purity % ([1]; 10 days, High humidity RH92.5%): 99.578% | Individual maximum impurity % ([1]; 10 days, High humidity RH92.5%): 0.234% | Chromatographic purity % [1, 5]: 99.596% | Individual maximum impurity % [1, 5]: 0.232% | Chromatographic purity % ([1]; 10 days, Light 4500 ± 500 LX): 99.502% | Individual maximum impurity % ([1]; 10 days, Light 4500 ± 500 LX): 0.313% | Chromatographic purity % ([1]; 30 days, High humidity RH92.5%): 99.544% | Individual maximum impurity % ([1]; 30 days, High humidity RH92.5%): 0.235% | Chromatographic purity % [1, 6]: 99.570% | Individual maximum impurity % [1, 6]: 0.237% | Chromatographic purity % ([1]; 30 days, Light 4500 ± 500 LX): 98.868% | Individual maximum impurity % ([1]; 30 days, Light 4500 ± 500 LX): 0.698% | 2-Oxo metabolite concentration in human plasma ([2]; 0 min): 0.0412 µM | 2-Oxo metabolite in human plasma, % ([2]; 0 min): 4.34% | Concentration of incubated compound in human plasma ([2]; 0 min): 0.950 µM | Incubated compound in human plasma, % ([2]; 0 min): 100% | Generation of 2-oxo (2-Oxo) product in human plasma [2]: rapidly generate 2-oxo products | 2-Oxo metabolite concentration in human plasma ([2]; 5 min): 0.0807 µM | 2-Oxo metabolite in human plasma, % ([2]; 5 min): 8.49% | Concentration of incubated compound in human plasma ([2]; 5 min): 0.872 µM | Incubated compound in human plasma, % ([2]; 5 min): 91.7% | 2-Oxo metabolite concentration in human plasma ([2]; 10 min): 0.143 µM | 2-Oxo metabolite in human plasma, % ([2]; 10 min): 15.1% | Concentration of incubated compound in human plasma ([2]; 10 min): 0.782 µM | Incubated compound in human plasma, % ([2]; 10 min): 82.3% | 2-Oxo metabolite concentration in human plasma ([2]; 20 min): 0.195 µM | 2-Oxo metabolite in human plasma, % ([2]; 20 min): 20.5% | Concentration of incubated compound in human plasma ([2]; 20 min): 0.575 µM | Incubated compound in human plasma, % ([2]; 20 min): 60.5% | 2-Oxo metabolite concentration in human plasma ([2]; 30 min): 0.198 µM | 2-Oxo metabolite in human plasma, % ([2]; 30 min): 20.8% | Concentration of incubated compound in human plasma ([2]; 30 min): 0.425 µM | Incubated compound in human plasma, % ([2]; 30 min): 44.7% | 2-Oxo metabolite concentration in human plasma ([2]; 45 min): 0.167 µM | 2-Oxo metabolite in human plasma, % ([2]; 45 min): 17.5% | Concentration of incubated compound in human plasma ([2]; 45 min): 0.266 µM | Incubated compound in human plasma, % ([2]; 45 min): 28.0% | 2-Oxo metabolite concentration in human plasma ([2]; 60 min): 0.130 µM | 2-Oxo metabolite in human plasma, % ([2]; 60 min): 13.6% | Concentration of incubated compound in human plasma ([2]; 60 min): 0.174 µM | Incubated compound in human plasma, % ([2]; 60 min): 18.3% | 2-Oxo metabolite concentration in human plasma ([2]; 90 min): 0.0535 µM | 2-Oxo metabolite in human plasma, % ([2]; 90 min): 5.63% | Concentration of incubated compound in human plasma ([2]; 90 min): 0.0522 µM | Incubated compound in human plasma, % ([2]; 90 min): 5.49% | 2-Oxo metabolite concentration in human plasma ([2]; 120 min): 0.0224 µM | 2-Oxo metabolite in human plasma, % ([2]; 120 min): 2.35% | Concentration of incubated compound in human plasma ([2]; 120 min): 0.0162 µM | Incubated compound in human plasma, % ([2]; 120 min): 1.70% | 2-Oxo metabolite concentration in human plasma ([2]; 150 min): 0.00857 µM | 2-Oxo metabolite in human plasma, % ([2]; 150 min): 0.902% | Concentration of incubated compound in human plasma ([2]; 150 min): 0.00531 µM | Incubated compound in human plasma, % ([2]; 150 min): 0.558% | 2-Oxo metabolite concentration in human plasma ([2]; 180 min): 0.00397 µM | 2-Oxo metabolite in human plasma, % ([2]; 180 min): 0.418% | Concentration of incubated compound in human plasma ([2]; 180 min): 0.00219 µM | Incubated compound in human plasma, % ([2]; 180 min): 0.231% | 2-Oxo metabolite concentration in human plasma ([2]; 240 min): 0 µM | 2-Oxo metabolite in human plasma, % ([2]; 240 min): 0% | Concentration of incubated compound in human plasma ([2]; 240 min): 0 µM | Incubated compound in human plasma, % ([2]; 240 min): 0% | 2-Oxo metabolite concentration in human plasma ([2]; 300 min): 0 µM | 2-Oxo metabolite in human plasma, % ([2]; 300 min): 0% | Concentration of incubated compound in human plasma ([2]; 300 min): 0 µM | Incubated compound in human plasma, % ([2]; 300 min): 0% | 2-Oxo metabolite concentration in human plasma ([2]; 360 min): 0 µM | 2-Oxo metabolite in human plasma, % ([2]; 360 min): 0% | Concentration of incubated compound in human plasma ([2]; 360 min): 0 µM | Incubated compound in human plasma, % ([2]; 360 min): 0% | Drug-related toxicity (appearance, mental activity, appetite, hematological, blood biochemical, ECG) (beagle dogs; continuous intragastrical administration for 14 days): no significant drug-related toxicity | Activities, mental condition and diet (beagle dogs; [7]): normal activities, good mental condition, and normal diet | ECG examinations, hematological tests and serum biochemical tests (beagle dogs; [7]): no obvious abnormalities | Activities, mental condition and diet (beagle dogs; [8]): normal activities, good mental condition, and normal diet | ECG examinations, hematological tests and serum biochemical tests (beagle dogs; [8]): no obvious abnormalities | ED50 ([3]; Rattus norvegicus, Platelet, po): 1 mg/kg | Inhibition rate (%) ([3]; intragastric 0.5 mg/kg): 22.4% | Inhibition rate (%) ([3]; intragastric 1 mg/kg): 50.2% | Inhibition rate (%) ([3]; intragastric 2 mg/kg): 77.0% | Aggregation rate (%) ([3]; intragastric 0.5 mg/kg): 46.6 ± 8.1% | Aggregation rate (%) ([3]; intragastric 1 mg/kg): 29.9 ± 8.7 % | Aggregation rate (%) ([3]; intragastric 2 mg/kg): 13.8 ± 11.7 %

Reference: patent publication US11466025B2, “Thienopyridine derivatives containing unsaturated aliphatic olefinic bond, preparation method and use thereof” (Tianjin Institute of Pharmaceutical Research Co., Ltd., priority 2017, dated 2022)
